pEC50, pIC50: −log10 of the molar value.

The subject of data set [1] is Mus musculus. Put plainly: Increase of SIRT1 mRNA expression in mouse soleus muscle at 12.5 to 25 mg/kg qd for 7 days by RT-PCR analysis. It counts as functional. The settings on record: dose mg/kg 12.5-25.
For data set [2], the system named is Mus musculus. Kind of data set: Increase of SIRT1 mRNA expression in mouse brain at 25 mg/kg qd for 7 days by RT-PCR analysis. The format is functional.
Data set [3] deals with Mus musculus. Kind of data set: Increase of SIRT1 mRNA expression in mouse brain at 12.5 mg/kg qd for 7 days by RT-PCR analysis. It counts as functional.
For data set [4], the target named is T1, NAD-dependent protein deacetylase sirtuin-1 (Homo sapiens) (UniProt Q96EB6).
T1 sequence (whole entry): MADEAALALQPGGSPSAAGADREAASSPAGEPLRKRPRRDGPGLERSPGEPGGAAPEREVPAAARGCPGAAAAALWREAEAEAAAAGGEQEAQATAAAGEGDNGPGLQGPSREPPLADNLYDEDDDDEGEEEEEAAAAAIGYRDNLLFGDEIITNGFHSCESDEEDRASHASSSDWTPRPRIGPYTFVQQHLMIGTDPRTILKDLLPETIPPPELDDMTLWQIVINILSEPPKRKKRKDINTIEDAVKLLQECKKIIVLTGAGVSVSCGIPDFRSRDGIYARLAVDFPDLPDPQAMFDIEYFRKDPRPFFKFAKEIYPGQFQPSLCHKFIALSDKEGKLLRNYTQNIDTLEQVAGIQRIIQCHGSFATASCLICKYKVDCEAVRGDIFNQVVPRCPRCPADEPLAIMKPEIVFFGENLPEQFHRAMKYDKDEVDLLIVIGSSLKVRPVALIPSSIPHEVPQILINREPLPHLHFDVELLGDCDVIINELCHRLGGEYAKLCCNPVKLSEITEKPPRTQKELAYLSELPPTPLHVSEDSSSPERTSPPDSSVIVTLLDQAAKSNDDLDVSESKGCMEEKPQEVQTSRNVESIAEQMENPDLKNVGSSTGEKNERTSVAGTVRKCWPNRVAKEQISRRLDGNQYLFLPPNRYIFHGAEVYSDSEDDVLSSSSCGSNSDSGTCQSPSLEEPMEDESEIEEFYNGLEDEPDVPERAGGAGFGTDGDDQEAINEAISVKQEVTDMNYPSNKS
Kind of data set: Activation of SIRT1 relative to control.

For data set [5], the target named is T2, NAD-dependent protein deacetylase sirtuin-1 (Homo sapiens, UniProt Q96EB6).
T2 sequence (Q96EB6 whole entry): T1 sequence (whole entry)
Kind of data set: Activation of SIRT1.

Data set [6] deals with T3, NAD-dependent protein deacetylase sirtuin-2 (Homo sapiens, UniProt Q8IXJ6).
T3 sequence (Q8IXJ6 whole entry): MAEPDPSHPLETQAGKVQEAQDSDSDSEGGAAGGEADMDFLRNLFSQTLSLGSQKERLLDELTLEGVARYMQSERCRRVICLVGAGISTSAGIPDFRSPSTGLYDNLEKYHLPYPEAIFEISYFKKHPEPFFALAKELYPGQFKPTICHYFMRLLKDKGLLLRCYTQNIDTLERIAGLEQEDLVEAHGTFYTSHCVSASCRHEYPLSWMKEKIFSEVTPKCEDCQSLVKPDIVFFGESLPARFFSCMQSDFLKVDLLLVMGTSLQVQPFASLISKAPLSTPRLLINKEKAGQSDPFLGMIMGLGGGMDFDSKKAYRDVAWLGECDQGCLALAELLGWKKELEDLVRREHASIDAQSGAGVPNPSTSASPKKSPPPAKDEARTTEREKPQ
Put plainly: Inhibition of SIRT2.

Data set [7] has as its target T2, NAD-dependent protein deacetylase sirtuin-1. Put plainly: Inhibition of SIRT1.
A short description of data set [8]: Half life in mouse. It counts as ADME, organism-based. The settings on record: in vivo.
The target of data set [9] is T4, NAD-dependent protein deacetylase sirtuin-3, mitochondrial (Homo sapiens, UniProt Q9NTG7).
T4 sequence (Q9NTG7 whole entry): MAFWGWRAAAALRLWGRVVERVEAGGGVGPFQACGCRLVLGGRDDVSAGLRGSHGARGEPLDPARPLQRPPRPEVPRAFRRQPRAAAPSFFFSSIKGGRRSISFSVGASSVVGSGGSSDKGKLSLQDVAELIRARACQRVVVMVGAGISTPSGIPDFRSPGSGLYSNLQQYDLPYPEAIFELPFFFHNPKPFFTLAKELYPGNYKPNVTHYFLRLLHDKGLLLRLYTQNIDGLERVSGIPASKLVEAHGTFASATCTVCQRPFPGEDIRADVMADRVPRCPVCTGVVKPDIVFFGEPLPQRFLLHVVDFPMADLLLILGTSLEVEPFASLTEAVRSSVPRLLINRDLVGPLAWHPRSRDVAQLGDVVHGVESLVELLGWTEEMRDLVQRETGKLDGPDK
Kind of data set: Inhibition of SIRT3.

Turning to `O=c1c(O)c(-c2ccc(O)c(O)c2)oc2cc(O)cc(O)c12` [QUERCETIN], the figures for the Activity in the data set on Mus musculus [1], in the data set with Mus musculus [2] and in the data set on Mus musculus [3] were 200%, 100% and 50%, respectively.

The term Emax denotes the size of the effect at its maximum, as opposed to the concentration needed. The term pEC50 denotes −log10 of the EC50, conventionally taken in molar units. The low end stands for a high EC50, the high end for a low EC50. `CN(C)c1cccc(C(=O)Nc2cccc(-c3nc4ncccc4o3)c2)c1` came in with an Emax in data set [4] of 207%. The pEC50 in data set [5] is 4.60.

In turn, `CN(C)c1cccc(C(=O)Nc2ccccc2-c2nc3ncccc3o2)c1` returned an Emax in data set [4] of 209%. The compound further had a pEC50 in data set [5] of 5.36. The term pIC50 denotes −log10 of the IC50, conventionally taken in molar units. Read a high pIC50 as a small IC50. As to `Cc1ccc(C(=O)Nc2ccc(S(=O)(=O)O)c3cc(S(=O)(=O)O)cc(S(=O)(=O)O)c23)cc1NC(=O)c1cccc(NC(=O)Nc2cccc(C(=O)Nc3cc(C(=O)Nc4ccc(S(=O)(=O)O)c5cc(S(=O)(=O)O)cc(S(=O)(=O)O)c45)ccc3C)c2)c1` [SURAMIN HEXASODIUM], the pIC50 in [6] is 5.92. For the compound `O=C1NC(=S)NC(=O)C1=Cc1cccc2ccccc12`, the pIC50 in data set [7] is 4.89; in [6] it was 5.05. With `O=C(Nc1nccs1)c1cccc2[nH]c(-c3cccc(C(F)(F)F)c3)nc12`, in data set [4], the Emax is greater than 200%. Also, in data set [5], the pEC50 is greater than 6.00. In the case of `O=C1c2cccc3cccc(c23)C(=O)N1CCNCCCNCCCNCCN1C(=O)c2cccc3cccc(c23)C1=O`, the pIC50 in [7] was 4.37. Broadly, the half-life is the time in which the quantity being followed falls by half. As to `NC(=O)C1CCCc2c1[nH]c1ccc(Cl)cc21` (configuration not stated), the half-life in data set [8] was 3.23 h.

Turning to `COc1ccc(C(=O)Nc2cccc(-c3nc4ncccc4o3)c2)cc1OC`, in data set [4], the Emax came to 240%. Moreover, the pEC50 in data set [5] was 5.22.

In data set [5], `O=C(Nc1ccccc1-c1nc2cccnc2s1)c1cc(N2CCNCC2)nc(-c2ccccc2)n1` gave a negative-log EC50 (pEC50) greater than 6.60. Same read-out and setting: the figure for `O=C(Nc1ccccc1-c1nc2cccnc2s1)c1cc(NC[C@@H](O)CO)nc(-c2ccccc2)n1` is greater than 6.60. With `CC(=S)NCCCC[C@H](NC(=O)OCc1ccccc1)C(=O)Nc1ccccc1`, in data set [9], the negative-log IC50 (pIC50) was less than 4.00. In the case of `O=c1[nH]c(=S)[nH]c(-c2ccc(Br)cc2)c1Cc1c(O)ccc2ccccc12`, the negative logarithm of the IC50 (pIC50) in [7] is 4.89.

On to `COc1ccc(C(=O)Nc2ccccc2-c2nc3ncccc3o2)cc1OC`, for which the Emax in [4] came to 170%. The compound also showed a pEC50 in [5] of 6.05.

Turning to `CCOC(=O)CC(=O)NCCCC[C@H](NC(=O)OCc1ccccc1)C(=O)Nc1ccccc1`, the negative logarithm of the IC50 (pIC50) in data set [7] is 5.40; in data set [9], less than 3.52; in data set [6] it was 4.19. Regarding `Cc1ccc2[nH]c(=O)c(C=C3C(=O)NC(=S)NC3=O)cc2c1`, the pIC50 in [7] was 4.89; in [6], 4.96.

For `O=C(Nc1ccc(CN2CCNCC2)cc1-c1nc2ccccc2[nH]1)c1cnc2ccccc2n1`, the maximal effect (Emax) in [4] turned out to be 820%. For the same compound, the pEC50 in data set [5] was 6.40. As for `O=C(Nc1ccccc1-c1nc2ccccc2[nH]1)c1cnc2ccccc2n1`, in data set [4], the Emax stood at 253%. This compound had a pEC50 in data set [5] of 6.52. In data set [5], `O=C(Nc1ccccc1-c1nc2cccnc2s1)c1cc(N2CCOCC2)nc(-c2ccccc2)n1` showed a pEC50 greater than 6.60. In turn, `NC(=O)c1ccccc1Nc1ccccc1` [ANILINOBENZAMIDE] had a pIC50 in data set [7] of 4.77.

As for `O=C1NC(=S)NC(=O)C1=Cc1cc2ccccc2[nH]1`, the pIC50 was 5.22 in [7] and 4.70 in data set [6]. For the compound `O=C1Nc2c(ccc(Cl)c2Cl)/C1=C/c1cc(Br)c(O)c(Br)c1`, the negative logarithm of the IC50 (pIC50) in [7] was 4.40; in data set [6], 4.55.
